Values quoted from earlier work, collected in patent publication US20160354364A1, “Pharmaceutical Compositions” (Alpharma Pharmaceuticals LLC, priority 2008, published 2016).

Conditions: in vivo

O=C1CC[C@@]2(O)[C@H]3Cc4ccc(O)c5c4[C@@]2(CCN3CC2CC2)[C@H]1O5 [Naltrexone, naltrexone]
time of absorption following oral administration: ≤ 1 h
